From ChEMBL document CHEMBL1139370, “Discovery of 1-[9-(4-chlorophenyl)-8-(2-chlorophenyl)-9H-purin-6-yl]-4-ethylaminopiperidine-4-carboxylic acid amide hydrochloride (CP-945,598), a novel, potent, and selective cannabinoid type 1 receptor antagonist” (J Med Chem, 2009)
Activity calls are given as the source filed them. The rule behind the calls is not given here.

Legend:
Cannabinoid receptor 1 [1] = biological target: Cannabinoid receptor 1 (Rattus norvegicus, UniProt P20272); assay: Displacement of [3H]SR141716A from CB1 receptor in rat brain; format: tissue-based
[2] = Lipophilicity, log D of the compound; format: physicochemical; conditions: octanol/water
[3] = Metabolic stability in rat liver microsomes assessed as intrinsic clearance; format: ADME, Microsome
[4] = Thermodynamic solubility in 0.1 M phosphate buffered saline at pH 6.5 by reversed phase HPLC; format: physicochemical; conditions: buffer
[5] = Thermodynamic solubility in USP simulated gastric fluid at pH 1.2 by reversed phase HPLC; format: physicochemical; conditions: simulated gi fluid
[6] = Metabolic stability in human liver microsomes assessed as intrinsic clearance; format: ADME, Microsome
[7] = biological target: Voltage-gated inwardly rectifying potassium channel KCNH2 (Homo sapiens, UniProt Q12809); assay: Inhibition of human ERG
Cannabinoid receptor 1 [8] = biological target: T1, Cannabinoid receptor 1 (Homo sapiens, UniProt P21554); assay: biochemical; format: cell-based, HEK293
Cannabinoid receptor 1 [9] = biological target: T1, Cannabinoid receptor 1; assay: Antagonist activity against human CB1 receptor expressed in CHO-K1 cells by [35S]GTPgamma binding assay; format: functional, cell-based
Rattus norvegicus = assay: Anorectic activity in Sprague-Dawley rat assessed as reduction in food intake at 10 mg/kg, po measured at 10 mins interval for 2 hrs by fast-induced refeeding assay relative to control; format: functional; design: scale not given: the % may be the effect or the level left
Mus musculus [10] = assay: Reversal of CP-55940-induced hypothermia in ICR mouse at 10 mg/kg, sc pretreated 15 mins before CP-55940 challenge measured 65 mins post challenge; format: functional; conditions: route subcutaneous
Mus musculus [11] = assay: Reversal of CP-55940-induced analgesia in ICR mouse at 10 mg/kg, sc pretreated 15 mins before CP-55940 challenge measured 45 mins post challenge by hot plate method; format: functional; conditions: route subcutaneous
[12] = Induction of P-gp-mediated efflux in mdr1a/1b knockout mouse model
Mus musculus [13] = assay: Reversal of CP-55940-induced locomotor activity in ICR mouse at 10 mg/kg, sc pretreated 15 mins before CP-55940 challenge measured 25 mins post challenge; format: functional, organism-based; design: dose 10 mg/kg
Mus musculus [14] = assay: Reversal of CP-55940-induced catalepsy in ICR mouse at 10 mg/kg, sc pretreated 15 mins before CP-55940 challenge measured 90 mins post challenge; format: functional, organism-based; design: dose 10 mg/kg
[15] = Inhibition of P-gp assessed as ATP turnover at […] by cell-based ATPase assay
[16] = Inhibition of P-gp by cell-based calcein-acetoxymethyl ester assay

Sequence of Voltage-gated inwardly rectifying potassium channel KCNH2 (Q12809 whole entry): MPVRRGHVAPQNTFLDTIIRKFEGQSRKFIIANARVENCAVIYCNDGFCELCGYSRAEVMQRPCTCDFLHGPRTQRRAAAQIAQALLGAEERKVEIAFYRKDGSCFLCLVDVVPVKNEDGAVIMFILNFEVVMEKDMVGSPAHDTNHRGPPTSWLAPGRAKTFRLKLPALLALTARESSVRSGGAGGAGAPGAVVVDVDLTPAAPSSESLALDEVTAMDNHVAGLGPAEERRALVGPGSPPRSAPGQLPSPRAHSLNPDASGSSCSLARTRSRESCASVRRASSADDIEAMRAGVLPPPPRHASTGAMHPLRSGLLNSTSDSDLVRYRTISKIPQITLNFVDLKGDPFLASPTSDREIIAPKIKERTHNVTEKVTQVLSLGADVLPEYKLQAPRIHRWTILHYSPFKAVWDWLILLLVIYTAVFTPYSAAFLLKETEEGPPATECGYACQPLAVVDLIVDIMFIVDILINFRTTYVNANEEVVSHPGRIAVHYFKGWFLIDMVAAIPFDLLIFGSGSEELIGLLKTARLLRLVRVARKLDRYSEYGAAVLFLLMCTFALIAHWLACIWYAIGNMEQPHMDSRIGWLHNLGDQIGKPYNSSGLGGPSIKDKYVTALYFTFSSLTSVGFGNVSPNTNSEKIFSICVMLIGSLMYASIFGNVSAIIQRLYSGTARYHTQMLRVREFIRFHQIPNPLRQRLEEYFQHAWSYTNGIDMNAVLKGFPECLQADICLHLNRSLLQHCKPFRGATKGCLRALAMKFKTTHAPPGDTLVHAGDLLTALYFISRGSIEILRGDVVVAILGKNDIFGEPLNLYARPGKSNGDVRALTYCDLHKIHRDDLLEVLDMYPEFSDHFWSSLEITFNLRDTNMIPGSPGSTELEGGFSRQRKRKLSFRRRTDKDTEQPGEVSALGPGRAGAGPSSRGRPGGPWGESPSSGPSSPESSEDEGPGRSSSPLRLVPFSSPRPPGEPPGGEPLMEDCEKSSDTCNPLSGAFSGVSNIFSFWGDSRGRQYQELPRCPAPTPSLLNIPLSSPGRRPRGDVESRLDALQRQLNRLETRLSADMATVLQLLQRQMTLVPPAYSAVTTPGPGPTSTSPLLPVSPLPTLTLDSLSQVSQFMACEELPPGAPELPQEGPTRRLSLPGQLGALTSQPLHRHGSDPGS
Sequence of Cannabinoid receptor 1 (Rattus norvegicus, UniProt P20272) (P20272 whole entry): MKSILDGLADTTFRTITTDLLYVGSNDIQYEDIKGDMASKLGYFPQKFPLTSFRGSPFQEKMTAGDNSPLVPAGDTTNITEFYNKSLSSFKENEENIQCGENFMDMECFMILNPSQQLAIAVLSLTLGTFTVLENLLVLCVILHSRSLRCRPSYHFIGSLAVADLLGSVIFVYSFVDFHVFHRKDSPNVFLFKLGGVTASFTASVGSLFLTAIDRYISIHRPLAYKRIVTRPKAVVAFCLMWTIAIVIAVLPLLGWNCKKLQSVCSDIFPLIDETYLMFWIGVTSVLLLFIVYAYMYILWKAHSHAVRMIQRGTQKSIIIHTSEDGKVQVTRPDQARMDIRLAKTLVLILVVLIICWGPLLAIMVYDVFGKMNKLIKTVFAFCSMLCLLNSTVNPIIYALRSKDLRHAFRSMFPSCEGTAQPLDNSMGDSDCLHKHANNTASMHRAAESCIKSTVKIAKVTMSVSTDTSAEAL
T1 sequence (P21554 whole entry): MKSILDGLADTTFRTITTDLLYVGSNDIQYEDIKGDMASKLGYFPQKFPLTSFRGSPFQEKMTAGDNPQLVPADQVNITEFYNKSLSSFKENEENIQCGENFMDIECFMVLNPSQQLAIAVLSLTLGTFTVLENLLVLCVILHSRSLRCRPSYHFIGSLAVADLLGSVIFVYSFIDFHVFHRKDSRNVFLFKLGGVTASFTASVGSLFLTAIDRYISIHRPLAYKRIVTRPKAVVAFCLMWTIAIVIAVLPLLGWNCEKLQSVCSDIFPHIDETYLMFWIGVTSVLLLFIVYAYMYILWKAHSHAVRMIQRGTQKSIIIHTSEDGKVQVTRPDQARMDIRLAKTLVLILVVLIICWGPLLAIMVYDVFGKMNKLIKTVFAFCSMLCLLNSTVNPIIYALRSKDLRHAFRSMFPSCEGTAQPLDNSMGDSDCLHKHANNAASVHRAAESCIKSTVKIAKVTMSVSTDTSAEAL

## CN1CCN(c2ncnc3c2nc(-c2ccccc2Cl)n3-c2ccc(Cl)cc2)CC1
Cannabinoid receptor 1 [1]
  Ki: 24 nM
[2]
  logD: 4.1
[3]
  CLint scaled: 90 L/h/kg
[4]
  Thermodynamic solubility: 0.33 ugA/ml
[5]
  Thermodynamic solubility: 1290 ugA/ml
[6]
  CLint scaled: 18 L/h/kg
[7]
  IC50: 630 nM

## Clc1ccc(-n2c(-c3ccccc3Cl)nc3c(N4CCCCC4)ncnc32)cc1
Cannabinoid receptor 1 [1]
  Ki: 2.1 nM
[2]
  logD: 5.4
[3]
  CLint scaled: 516 L/h/kg
[4]
  Thermodynamic solubility: < 0.1 µgA/ml
Cannabinoid receptor 1 [8]
  Ki: 2.3 nM
[5]
  Thermodynamic solubility: 8.8 ugA/ml
[6]
  CLint scaled: 186 L/h/kg
Cannabinoid receptor 1 [9]
  Ki: 1.1 nM

## CN1CCN(c2ncnc3c2nc(-c2ccc(Cl)cc2Cl)n3-c2ccc(Cl)cc2)CC1
Cannabinoid receptor 1 [1]
  Ki: 5.9 nM
[2]
  logD: 4.8
[3]
  CLint scaled: 354 L/h/kg
[4]
  Thermodynamic solubility: 0.7 ugA/ml
Rattus norvegicus
  Activity: 25%
Mus musculus [10]
  Activity: 4%
Cannabinoid receptor 1 [8]
  Ki: 5.2 nM
[5]
  Thermodynamic solubility: 4930 ugA/ml
[6]
  CLint scaled: 44.4 L/h/kg
Cannabinoid receptor 1 [9]
  Ki: 1.5 nM
[7]
  IC50: 350 nM
Mus musculus [11]
  Activity: 74%

## Clc1ccc(-n2c(-c3ccc(Cl)cc3Cl)nc3c(NC4CCCCC4)ncnc32)cc1
Cannabinoid receptor 1 [1]
  Ki: 12 nM
[2]
  logD: 6.3
[3]
  CLint scaled: 1440 L/h/kg
[4]
  Thermodynamic solubility: < 0.1 ugA/ml
Cannabinoid receptor 1 [8]
  Ki: 7.1 nM
[5]
  Thermodynamic solubility: 4.1 ugA/ml
[6]
  CLint scaled: 1680 L/h/kg
Cannabinoid receptor 1 [9]
  Ki: 1.5 nM

## CCNC1(C(N)=O)CCN(c2ncnc3c2nc(-c2ccccc2Cl)n3-c2ccc(Cl)cc2)CC1 [OTENABANT]
Cannabinoid receptor 1 [1]
  Ki: 2.8 nM
[2]
  logD: 4
[3]
  CLint scaled: 72 L/h/kg
[4]
  Thermodynamic solubility: 1.3 ugA/ml
[12]
  Activity: Active
Rattus norvegicus
  Activity: 54%
Mus musculus [13]
  Activity: Active
Mus musculus [10]
  Activity: 73%
[5]
  Thermodynamic solubility: 291 ugA/ml
Mus musculus [14]
  Activity: Active
[6]
  CLint scaled: 44.4 L/h/kg
[7]
  IC50: > 3000 nM
Mus musculus [11]
  Activity: 85%
[15]
  Activity: inactive
[16]
  IC50: 15000 nM

## Clc1ccc(-n2c(-c3ccc(Cl)cc3Cl)nc3c(NN4CCCCC4)ncnc32)cc1
Cannabinoid receptor 1 [1]
  Ki: 3.6 nM
[2]
  logD: 5.3
[3]
  CLint scaled: 246 L/h/kg
[4]
  Thermodynamic solubility: 1.4 ugA/ml
Cannabinoid receptor 1 [8]
  Ki: 7.4 nM
[5]
  Thermodynamic solubility: 161 ugA/ml
[6]
  CLint scaled: 102 L/h/kg
Cannabinoid receptor 1 [9]
  Ki: 1.7 nM
[7]
  IC50: 2700 nM

## Cc1c(C(=O)NN2CCCCC2)nn(-c2ccc(Cl)cc2Cl)c1-c1ccc(Cl)cc1 [RIMONABANT]
[3]
  CLint scaled: 540 L/h/kg

## Clc1ccc(-n2c(-c3ccc(Cl)cc3Cl)nc3c(N4CCCCC4)ncnc32)cc1
Cannabinoid receptor 1 [1]
  Ki: 4.2 nM
[2]
  logD: 5.9
[3]
  CLint scaled: 4620 L/h/kg
[4]
  Thermodynamic solubility: < 0.1 ugA/ml
Rattus norvegicus
  Activity: 6%
Mus musculus [10]
  Activity: 29%
Cannabinoid receptor 1 [8]
  Ki: 6.1 nM
[5]
  Thermodynamic solubility: 3.5 ugA/ml
[6]
  CLint scaled: 1680 L/h/kg
Cannabinoid receptor 1 [9]
  Ki: 1.7 nM
[7]
  IC50: > 3000 nM
Mus musculus [11]
  Activity: 72%
